Measured values: patent publication US20120040976A1, “SMALL MOLECULE IMMUNOMODULATORS FOR ALZHEIMER'S DISEASE” (HUMAN BIOMOLECULAR RESEARCH INSTITUTE, priority 2008, published 2012)

Key:
TLR 3 = TLR 3 transcription ratio, AD patient / control PBMCs (qPCR); type: cell-based, human; settings: Aβ stimulation
Procedure: (§1) qPCR reactions of cultured monocyte cDNAs. One μL total cellular cDNA per reaction is used in triplicate reactions for each test gene, and for each culture treatment. SYBR-Green reactions were run on a Continuous Fluorescence real-time thermocycler and analyzed. Cycle threshold (Ct) values are recorded for each replicate reaction, and are then averaged and normalized against mean Ct values from one or more control genes. Fold-expression differences relative to untreated cells are determined using the 2^−ΔΔCt method as previously described. Data from the curcumin concentration range are plotted in order to determine EC50 values (concentrations producing one-half maximal stimulant activity), which are used for comparisons of potency between different compounds. Data are also evaluated for each gene with regard to sensitivity, maximally effective concentration of curcuminoid, response to Aβ, and overall magnitude of fold-expression changes.
(§2) MGAT3 and/or TLR transcription were tested by qPCR in human monocyte cells treated with curcuminoids and compared the results to those treated with vehicle (Table 7). As discussed above, activation or up-regulation of macrophage MGAT3 or TLR's results in many functional outcomes, including the enhancement of […] and removal of Aβ, increased apoptosis, secretion of inflammatory cytokines, and other anti-AD antimicrobial activities. […] Thus, the ratio of MGAT3 or TLR transcription upon Aβ stimulation of human monocytes versus vehicle treatment provides an indicator and sensitive method to test the in vitro efficacy of drug candidates. […] The relative biological activity of the curcumin analogs in AD patient and control cells was ascertained in the in vitro Aβ assay described above (see Example 2).

TLR3 = TLR3 gene expression by qPCR in U-937 human monocytic cells treated with curcumins plus Aβ; type: cell-based
Procedure: Cell culture conditions for monocytic cell lines. Human and mouse monocyte cell lines are grown in RPMI-1640 medium with 10% fetal bovine serum (FBS), plus glutamine and pen/strep. For treatment with compounds (curcuminoids+/−Aβ), replicate sets of 0.5-1.0 mL cultures containing 1-2×10^6 cells are set up in the wells of 48-well tissue culture plates. Both replicate sets have at least one control well receiving no added curcuminoid to provide baseline expression controls for untreated, and Aβ-only treated cells. Remaining wells receive curcuminoid in a range of 10-fold serial dilutions in DMSO, typically from […] Cultures are incubated for 20-24 hours (“overnight”) at 37° C. in atmosphere with 5% CO2. After one overnight, to one of replicate sets of cultures is added Aβ (1-42) peptide to a final concentration of 5 μg/mL.
RNA isolation and cDNA synthesis. After the first overnight incubation in the presence of curcuminoid, cells from one replicate set of wells are collected by centifugation. RNAs are extracted from pelleted cells using miniprep column kits following manufacturer's protocol for animal cells. […] of total cellular RNA from each well is quantitated using a Nanodrop spectrophotometer, and first-strand total cDNA is prepared from 0.3-1.0 μg RNA by random-hexamer priming. Following the second 20 hr. incubation in the presence of Aβ, RNA extractions and cDNA synthesis are similarly performed.
Assay development. Gene-specific mRNA levels are determined using a real-time thermocycler, and by normalizing to expression of one or more control genes. Assays for quantifying mRNA levels are based on gene sequences reported in NCBI Genbank. PCR oligonucleotide primers are selected spanning introns to minimize the opportunity for amplication from any contaminating genomic DNA in the RNA preps. Oligonucleotides are typically tested and used at a concentration of 200 nM in qPCR reactions containing SYBR dye. Control reactions include template from cDNA synthesis reactions either + or − reverse transcriptase (RT), as well as no-template controls (ntc). All reactions are performed in triplicate. Reactions are typically run with 40 cycles of 95° C. (10 sec) and 58° C. (30 sec). Melt curves based on incremental 0.5° C. increases are determined for new assays to test for uniformity of amplified products. Reaction conditions are modified as needed depending on initial test results. ‘Working’ assays are selected based on clear RNA-dependent amplification and absence of product in ‘ntc’ reactions. The following assay primers are used: […]
as §1
Data showing in vitro up-regulation of genes associated with Aβ phagocytosis in response to curcumins. Natural curcumins and synthetic analogs were tested in U-937 human monocyte cells in vitro for their ability to modulate expression of the genes MGAT3 and TLRs −2, −3, and −4. […]

TLR 4 = TLR 4 transcription ratio, AD patient / control PBMCs (qPCR); type: cell-based, human; settings: Aβ stimulation
Procedure: as §1, §2

TLR 10 = TLR 10 transcription ratio, AD patient / control PBMCs (qPCR); type: cell-based, human; settings: Aβ stimulation
Procedure: as §1
(§3) MGAT3 and/or TLR transcription were tested by qPCR in human monocyte cells treated with curcuminoids and compared the results to those treated with vehicle (Table 7). As discussed above, activation or up-regulation of macrophage MGAT3 or TLR's results in many functional outcomes, including the enhancement of […] and removal of Aβ, increased apoptosis, secretion of inflammatory cytokines, and other anti-AD antimicrobial activities. […]

TLR 6 = TLR 6 transcription ratio, AD patient / control PBMCs (qPCR); type: cell-based, human; settings: Aβ stimulation
Procedure: as §1, §3

[1] = Metabolic stability in human S9 fraction; type: in vitro ADME; settings: read-out: Half life, t1/2 S9
TLR 8 = TLR 8 transcription ratio, AD patient / control PBMCs (qPCR); type: cell-based, human; settings: Aβ stimulation
Procedure: as §1, §3

TLR 2 = TLR 2 transcription ratio, AD patient / control PBMCs (qPCR); type: cell-based, human; settings: Aβ stimulation
Procedure: as §1, §2

Average solubility = type: physicochemical
TLR 9 = TLR 9 transcription ratio, AD patient / control PBMCs (qPCR); type: cell-based, human; settings: Aβ stimulation
Procedure: as §1, §3

Structure (SMILES): O=C(/C=C(O)/C=C/c1ccc(O)cc1)/C=C/c1ccc(O)cc1 [Compound 1, 5-Hydroxy-1,7-bis-(4-hydroxy-phenyl)-hepta-1,4,6-trien-3-one, reference compound]
- Relative ratio of TLR 3 transcription in AD patient / control PBMC's (TLR 3): TLR 3 ++ ((++) indicates a ratio of 1.5-2.0)
- TLR3 expression response (in words) (TLR3; U-937, plus Aβ (FIG. 3)): limited response
- Relative gene expression TLR3, increased expression relative to control cells (TLR3; human monocytic cells (U-937), curcumin plus Aβ): + ((+) <20-fold)
- Relative ratio of TLR 4 transcription in AD patient / control PBMC's (TLR 4): TLR 4 +++ ((+++ to ++++) indicates a ratio of 2.0 and above)
- Relative ratio of TLR 10 transcription in AD patient / control PBMC's (TLR 10): TLR 10 ++ ((++) indicates a ratio of 1.5-2.0)
- Relative ratio of TLR 6 transcription in AD patient / control PBMC's (TLR 6): TLR 6 + ((+) indicates a ratio of 1.0-1.5)
- half-life [1]: 4 min
- Relative ratio of TLR 8 transcription in AD patient / control PBMC's (TLR 8): TLR 8 + ((+) indicates a ratio of 1.0-1.5)
- Relative ratio of TLR 2 transcription in AD patient / control PBMC's (TLR 2): TLR 2 + ((+) indicates a ratio of 1.0-1.5)
- Avg. Solubility (Average solubility): insol
- Relative ratio of TLR 9 transcription in AD patient / control PBMC's (TLR 9): TLR 9 ++ ((++) indicates a ratio of 1.5-2.0)
